Experimental data taken from patent US20220251152A1, “COMPOSITIONS AND METHODS FOR SELECTIVE PROTEIN DEGRADATION” (Novartis AG, priority 2019, published 2022).
Entries after “also recorded” stand apart in the source; their conditions may differ. Where a SMILES comes first, the peptide text is derived from it. The star is where a group is joined. Cbz = O=C(OCc1ccccc1)*

How the values were obtained:
[1] = biological target: T1, IKZF3 136-180 and 236-249-tagged NanoLuciferase (Homo sapiens, UniProt Q96SW2+Q9UKT9, DEL181-196/S197T); assay type: cell-based; conditions: 1-hour pre-treatment (10 μM MG132; 128 or 12.8 ng/mL cyclohexamide)
T1 construct: expressed in transfected cells; host or cells: HEK293T
Description: DMSO was included as a vehicle control. Luminescence was measured by reading each 384-well plate on a ViewLux® with 1-second and 5-second exposures. The data was imported into Spotfire® and visualizations were made by doing a NC3 normalization according to the following formula: 100*([Luminescence]/[DMSO]).

[2] = tested on: IKZF3 degron-tagged melanogenesis associated transcription factor (MITF); assay: Western blot of IKZF3-tagged MITF in HEK293T cells; assay type: cell-based, human; conditions: for ability of the tag to mediate lenalidomide-dependent degradation of MITF: HEK293T, Western blot
Description: IKZF3-based degradation tags were evaluated for their ability to facilitate the degradation of melanogenesis associated transcription factor (MITF) or avian myelocytomatosis viral oncogene (MYC) homolog by Western blot. In addition to the IKZF3-based degradation tags, MITF and MYC were also fused to a FLAG tag to facilitate their detection using an anti-FLAG antibody.
DMSO was used as vehicle control.

[3] = tested on: HilD-tagged CAR19 or FurON-CAR19 (NFAT luciferase reporter); assay: JNL NFAT luciferase reporter assay, lenalidomide dose-response at three treatment time points; assay type: cell-based, human
Description: This study used the JNL cell line described above, which is a Jurkat cell line modified with an NFAT luciferase reporter. Co-culturing of CAR19-expressing JNL cells and CD19-expressing B cells activates the NFAT signaling, leading to luciferase expression.
For target cell co-culture, K562 cells or CD19-expressing K562 cells were added to each well containing JNL cells and cultured on a GNF Systems Ultra-high throughput screening system in a 37° C. and 5% CO2 incubator.

[4] = tested on: IKZF3 136-180 and 236-249-tagged NanoLuciferase; conditions: 10 μM MG132 one-hour pre-treatment, then 100 μM lenalidomide
Description: Samples were pelleted, lysed, run on a protein gel, transferred to a membrane, probed with antibody and developed with film.

[5] = biological target: IKZF3 136-180 and 236-249-tagged CD19 (Homo sapiens, UniProt P15391); conditions: 10 μM MG132 pre-treatment, 10 μM lenalidomide
Description: In particular, flow cytometry analysis was conducted to determine whether there was a difference between the total amount of target protein degraded and the total amount of target protein expressed on the cell surface.
CD19 was stained with anti-human CD19 antibody (BD Pharmingen 555413).

CAR19-CARBtag [6] = biological target: T2, CAR19-CARBtag (Homo sapiens, UniProt Q96SW2+Q9UKS7, DEL175-229); assay: Western blot of JNL cells expressing CAR19-CARBtag; assay type: cell-based; conditions: various doses of Compound I-112 for 24 hours
T2 construct: signal peptide […]; 16GS linker […]; expressed in transfected cells; host or cells: Jurkat NFAT luciferase (JNL) cells, lentiviral infection at MOI 4

CARBtag-MITF-FLAG = biological target: T3, CARBtag-MITF-FLAG (Homo sapiens, UniProt O75030+Q9UKS7); assay: Western blot of HEK293T cells transiently transfected with CARBtag-MITF-FLAG; assay type: cell-based; conditions: 10 μM, 1 μM, 0.1 μM, or 0.01 μM Compound I-112 or lenalidomide
T3 construct: 16GS linker […]; MITF (NM_000248); expressed in transfected cells; host or cells: HEK293T (ATCC CRL-3216), transient, FuGene HD, CMV promoter vector

IKZF2 = IKZF2 (Homo sapiens, UniProt Q96SW2+Q9UKS7); assay: Degradation of IKZF2; assay type: cell-based
IKZF1 = IKZF1 (Homo sapiens, UniProt Q13422+Q96SW2); assay: Degradation of IKZF1; assay type: cell-based
IKZF3 = IKZF3 (Homo sapiens, UniProt Q96SW2+Q9UKT9); assay: Degradation of IKZF3; assay type: cell-based
CAR19-CARBtag [7] = biological target: T2, CAR19-CARBtag; assay: CAR19-CARBtag dose response in Jurkat NFAT luciferase cells, Western blot; assay type: cell-based; conditions: 10-0.001 μM, 24 hours; FIG. 38A
Description: (§1) Cells were expanded for one week before using. […] All cells were harvested at 24 hours after initial compound treatment for western blotting and flow cytometry analysis.
The gels were run in duplicate, one for actin and the other for either V5 or CD3Z.

CAR19-CARBtag [8] = biological target: T2, CAR19-CARBtag; assay: CAR19-CARBtag dose response in Jurkat NFAT luciferase cells, flow cytometry; assay type: cell-based; conditions: 10-0.001 μM, 24 hours; FIG. 38B
Description: as §1
After incubation the cells were washed using PBS.

CAR19-CARBtag [9] = biological target: T2, CAR19-CARBtag; assay: Jurkat NFAT luciferase (JNL) CAR functional assay, CAR19-CARB-tag cells; assay type: cell-based; conditions: 8-point dilution, 10 μM top, 15 hours pre-incubation; FIG. 38C
Description: Half of the 8-point Compound I-112 treated cells received 20 μl of K562 and the other half received 20 μl of Nalm6 cells.

CARBtag-16GS-MITF-FLAG = biological target: T4, CARBtag-16GS-MITF-FLAG (Homo sapiens, UniProt O75030+Q9UKS7); assay: CARBtag-16GS-MITF-FLAG degradation in HEK293T cells, Western blot; assay type: cell-based; conditions: 4-point log dilution from 10 μM, 24 hours, FIG. 39
T4 construct: MITF (NM_000248); expressed in transfected cells; host or cells: HEK293T (ATCC CRL-3216), transient, FuGene HD, CMV promoter vector
Description: Lysates were centrifuged, supernatant transferred to new tubes and protein quantities read by Lowry Assay (BioRad 5000111). Each sample was normalized to 30 μg total protein in a 20 μl volume with 4× sample buffer (Thermo Scientific NP0007) and 10× reducing agent (Thermo Scientific NP0009). […] The gels were run in triplicate (one for each antibody).

CD19-16GS-HilD-V5 = CD19-16GS-HilD-V5 expression in HEK293T cells, Western blot; assay type: cell-based; conditions: different doses, 24 hours, data not shown
Description: Cellular gene expression and treatment: HEK293T (ATCC CRL-3216) cells were cultured in DMEM with 10% FBS and pen/strep at 37° C. and 5% CO2. The cells were transfected with either CARBtag-16GS-MITF-FLAG or CARBtag-16GS-MITF-FLAG and CD19-16GS-HilD-V5 using FuGene HD (Promega E2311) using a 3:1 FuGene HD to DNA ratio. […] Cells were treated with the indicated compound for 24 hours and then were prepared for western blot.
The gels were run in triplicate (one for each antibody).

HilD-Tau (wild type) = biological target: T5, HilD-Tau (wild type) (Homo sapiens, UniProt P10636+Q96SW2); assay: Quantification of HilD-Tau degradation by Western analysis in HEK293T cells; assay type: cell-based; conditions: 1 μM MLN4924 co-treatment including 1 hour pretreatment
T5 construct: expressed in transfected cells; host or cells: HEK293T
Description: One day prior to transfection, HEK293T cells were plated at a density of 150,000 per well in a 24 well plate. […] Cells were incubated overnight. […] Plates were incubated on ice with occasional shaking for 15 minutes. Lysate was then cleared by centrifugation at 15000 g, 4° C. for 15 minutes. LDS buffer and reducing agent were added to the cleared lysate and then samples were heated at 95° C. for 8 minutes. Samples were run on a 10% bis-tris gel at 150V for 70 minutes. Blots were transferred using the Biorad turboblot (Mixed molecular weight setting). Blots were probed with DAKO Tau (total tau) (Dako #A0024), actin (Cell signaling technologies #3700S), and AT8 (phospho-Tau) (Thermo Fisher #MN1020).

[10] = tested on: NanoLuciferase fused to various IKZF3-based degradation tags; assay: Western blot of variant IKZF3-based degradation tags fused to NanoLuciferase in HEK293T cells; assay type: cell-based, human; conditions: tag fused to N-terminus of NanoLuciferase
Description: Additionally, the IKZF3-based degradation tags were modified using the following strategies:
(1) deleting N-terminal and/or C-terminal amino acid residues;
Protein degradation was measured using western blot as described in Example 2.

[11] = tested on: CAR19 fused to HilD tag and/or FurON; assay: Western blot of CAR19 fused to HilD tag and/or FurON in JNL cells; assay type: cell-based, human; conditions: 10 μM lenalidomide, 24 hours; FurON constructs with 1 μM bazedoxifene
Description: Viruses were prepared from maxi preps and used to transduce JNL cells. Either 275 μL of viral supernatant or 700 μL of viral supernatant was used for transduction. JNL cells are Jurkat cells engineered with a luciferase gene under control of the NFAT promoter.
Briefly, cells were diluted to 0.5×10^6 in 3 mL total in 6 well dishes. […] Bazedoxifene was added at a final concentration of 1 μM to every well that contained a cell line expressing a fusion comprising FurON. […] Cells were incubated at 37° C. and 5% CO2 overnight.
Lysates were centrifuged, supernatant transferred to new tubes and protein quantities read by Lowry Assay (BioRad 5000111). Each sample was normalized to 30 μg total protein in a 20 μL volume with 4× sample buffer (Thermo Scientific NP0007) and 10× reducing agent (Thermo Scientific NP0009). Samples were subjected to Western blot analysis using a mouse anti-V5 antibody (Thermo Scientific MA5-15253) at 1:1000 dilution, a mouse anti-actin antibody (Sigma Aldrich A5441) at 1:10000 dilution, and/or a mouse anti-CD3z antibody (BD 551034) at 1:1000 dilution.
Cells were harvested and subjected to Western blot as described above using a mouse anti-actin antibody (Sigma Aldrich A5441) at 1:10000 dilution or a mouse anti-CD3zeta antibody (BD 551034) at 1:1000 dilution.

## C[C@@H]1C[C@@H]([C@H](O)CC2CC(=O)NC(=O)C2)C(=O)[C@@H](C)C1 [cyclohexamide]
[1]
  effect of pre-treatment on lenalidomide-dependent degradation of NanoLuciferase: No obvious reduction

## CC(C)C[C@@H](C=O)NC(=O)[C@H](CC(C)C)NC(=O)[C@H](CC(C)C)NC(=O)OCc1ccccc1 [MG132] (Cbz-Leu-Leu-Leu-aldehyde)
[1]
  effect of pre-treatment on lenalidomide-dependent degradation of NanoLuciferase: blocked
[2]; MG132 treatment
  effect of MG132 on lenalidomide-dependent degradation of tagged MITF: blocked
[3]; HilD-tagged CAR19 or lysine-free-HilD-tagged CAR19 (constructs 769, 770)
  rescue by MG132 of lenalidomide-induced reduction of reporter signal: partially rescued
[3]; construct 767, MG132 5 hours prior to target cells
  rescue by MG132 of lenalidomide-induced reduction of reporter activation: mostly rescued
[4]
  effect of MG132 on lenalidomide-dependent degradation: not observed; also recorded: blocked
[5]
  effect of MG132 on lenalidomide-induced reduction of surface CD19: partially blocked

## O=C1CCC(N2Cc3cc(C4CCN(Cc5ccc(F)cc5)CC4)ccc3C2=O)C(=O)N1 (centres unmarked) [Compound I-112, 3-(5-(1-(4-fluorobenzyl)piperidin-4-yl)-1-oxoisoindolin-2-yl)piperidine-2,6-dione]
CAR19-CARBtag [6]
  degradation of CAR19-CARBtag: dose-responsive degradation of CAR19-CARBtag
CARBtag-MITF-FLAG
  degradation of CARB-tagged MITF: I-112-specific degradation of the CARB-tagged MITF
IKZF2
  degradation of IKZF2: specifically degrade IKZF2
IKZF1
  degradation of IKZF1: not IKZF1 or IKZF3
IKZF3
  degradation of IKZF3: not IKZF1 or IKZF3
CAR19-CARBtag [7]
  protein levels of CAR19-CARBtag (Western blot): dose-dependent decrease
CAR19-CARBtag [8]
  CAR surface expression in JNL CAR19-CARBtag cells: reduced CAR surface expression
CAR19-CARBtag [9]
  response of CAR19-CARBtag cells to CD19+ Nalm6 cells (NFAT luciferase): reduced in a dose-dependent manner
CARBtag-16GS-MITF-FLAG
  degradation of CARB-tagged MITF (Western blot): effectively degraded
CD19-16GS-HilD-V5
  expression of CD19-HilDtag (Western blot): remained constant

## NS(=O)(=O)OC[C@@H]1C[C@@H](n2ccc3c(N[C@H]4CCc5ccccc54)ncnc32)C[C@@H]1O [MLN4924]
HilD-Tau (wild type)
  effect of MLN4924 on lenalidomide-induced degradation of Tau: sensitive; also recorded: prevented degradation of Tau

## IKZF3 136-180 and 236-249: IKZF3-based degradation tag with amino acid residues 136-180 and 236-249 of human IKZF3, SEQ ID NO: 3 (HKRSHTGERPFQCNQCGASFTQKGNLLRHIKLHTGEKPFKCHLCNTASAEARHIKAEMG; source: /note="Description of Unknown: IKZF3 sequence")
[10]
  ability of the tag to facilitate lenalidomide-dependent degradation of NanoLuciferase: facilitated lenalidomide-dependent degradation of NanoLuciferase; also recorded: facilitated lenalidomide-induced degradation
[2]
  ability of the tag to mediate lenalidomide-dependent degradation of MITF: more effective than IKZF3 136-180

## IKZF3 136-180: tag with amino acid residues 136-180 of IKZF3, SEQ ID NO: 5
[10]
  ability of the tag to facilitate lenalidomide-dependent degradation of NanoLuciferase: able to mediate lenalidomide-dependent degradation
[2]
  ability of the tag to mediate lenalidomide-dependent degradation of MITF: to a lesser degree than IKZF3 136-180 and 236-249

B1: construct 765: signal peptide, FurOn, and CAR19 (protein)
chain: RSSLALSLTADQMVSALLDAEPPILYSEYDPTRPFSEASMMGLLTNLADRELVHMINWAKRVPGFVDLALHDQVHLLECAWMEILMIGLVWRSMEHPGKLLFAPNLLLDRNQGKCVEGGVEIFDMLLATSSRFRMMNLQGEEFVCLKSIILLNSGVYTFLSSTLKSLEEKDHIHRVLDKITDTLIHLMAKAGLTLQQQHQRLAQLLLILSHIRHMSSKRMEHLYSMKCKNVVPLSDLLLEMLDAHRLGTGAEDPRPSRKRRSLGDVGEIVMTQSPATLSLSPGERATLSCRASQDISKYLNWYQQKPGQAPRLLIYHTSRLHSGIPARFSGSGSGTDYTLTISSLQPEDFAVYFCQQGNTLPYTFGQGTKLEIKGGGGSGGGGSGGGGSQVQLQESGPGLVKPSETLSLTCTVSGVSLPDYGVSWIRQPPGKGLEWIGVIWGSETTYYQSSLKSRVTISKDNSKNQVSLKLSSVTAADTAVYYCAKHYYYGGSYAMDYWGQGTLVTVSSTTTPAPRPPTPAPTIASQPLSLRPEACRPAAGGAVHTRGLDFACDIYIWAPLAGTCGVLLLSLVITLYCKRGRKKLLYIFKQPFMRPVQTTQEEDGCSCRFPEEEEGGCELRVKFSRSADAPAYQQGQNQLYNELNLGRREEYDVLDKRRGRDPEMGGKPRRKNPQEGLYNELQKDKMAEAYSEIGMKGERRRGKGHDGLYQGLSTATKDTYDALHMQALPPR
[11]
  effect of lenalidomide on the CAR construct (Western blot): did not have any impact
